The source of these data is US12594292B2, “Antiviral prodrugs, intermediate-and long-acting formulations and methods” (priority 2022, dated 2026).

Usually EC90 stands for the concentration needed for an effect of 90%. By EC50 is commonly meant the concentration at which the effect is half-maximal. The CC50 is the concentration at which the toxic effect on the cells reaches its halfway point. Lower therefore signals harm at low concentration.

Data set [1] deals with SARS-CoV-2 isolate USA-WA1/2020. The data set can be described thus: SARS-CoV-2 infection in PSC-human lung cells, qRT-PCR (Example 7). Format: cell-based.
The test system is the same in data set [2]. Kind of data set: SARS-CoV-2 infection in Calu-3 cells, qRT-PCR (Example 7). Type of data set: cell-based. A general note: In qPCR the cycle at which signal appears reflects the starting amount.
Data set [3] can be described thus: Seven day oral pharmacokinetics in Syrian hamsters. Type of data set: in vivo. On the procedure: ODBG-P-RVn in 0.1M sodium carbonate/bicarbonate buffer, pH 9.0, was administered to Syrian Hamsters by oral gavage every 12 hours for seven days. ODBG-P-RVn was present as the sodium salt.
FIG. 4A and FIG. 4B depict the seven day oral pharmacokinetics in Syrian hamsters. Syrian hamsters were given vehicle or ODBG-P-RVn by oral gavage every 12 hours for 7 days. Groups of 3 animals received vehicle or drug at doses of 16.9 and 13.2 mg/kg. Animals were weighed daily and monitored for clinical signs.
Analytical Methods: ODBG-P-RVn: Hamster plasma samples (10 μL) containing ODBG-P-RVn and K2EDTA as the anticoagulant were added to polypropylene tubes containing water (100 μL), internal standard solution (10 μL; 1,000 ng/mL of ODE-P-RVn in ACN:DMF (1:1, v/v)), and 10 μL of ACN:DMF (1:1, v/v). The solutions were mixed, then acidified with phosphoric acid, 85% w/v:water (1:19, v/v; 10 μL), mixed, then diluted with 200 μL of IPA, mixed, then diluted with 500 μL of water, and mixed. The samples were extracted with a Sep-Pak® tC18 96-well solid phase extraction plate (25 mg; Waters, Milford, MA). Extraction occurred under positive pressure conditions using nitrogen. Samples were washed serially with 1 mL of water:acetonitrile:formic acid (475:25:0.5, v/v/v) and 0.4 mL of water:acetonitrile:formic acid (350:150:0.5, v/v/v) before being serially eluted with 100 μL and 150 μL of water:{acetonitrile:isopropyl alcohol (1:1, v/v)}:formic acid:ammonium formate:citric acid solution, 2% w/v (15:85:0.1:0.1:0.1, v/v/v/w/v). The citric acid solution was prepared as water:citric acid monohydrate (20:0.4, v/w). After elution, 100 μL of water was added to each sample. The ODBG-P-RVn extracts were analyzed using an Agilent 1200 HPLC system (Agilent, Santa Clara, CA) coupled to an API5500 mass analyzer (SCIEX, Foster City, CA). Analytes were chromatographically separated using a Dacapo DX-C18 MF column (100×2 mm, 2.5 μm; ImtaktUSA, Portland, OR) using a mobile phase system consisting of Mobile Phase A (water:formic acid:[water:ammonium formate:citric acid (25:5:0.5, v/w/w)](1.000:1:1, v/v/v) and Mobile Phase B (acetonitrile:isopropyl alcohol:formic acid:[water:ammonium formate:citric acid (25:5:0.5, v/w/w)](800:200:1:1, v/v/v/v). The total analytical run time was 4.5 minutes. The mobile phase was nebulized using heated nitrogen in a Turbo-V source/interface set to electrospray positive ionization mode. The ionized compounds were detected using multiple reaction monitoring with transitions m/z 788.4>229 (V2043) and 668.4>467.2 (V2041). This method is applicable for measuring ODBG-P-RVn concentrations ranging from 6.25 to 3,000 ng/mL using 10.0 μL of plasma for extraction. The peak areas of ODBG-P-RVn and RVn were acquired using Analyst v. 1.6.2 (SCIEX, Framingham, MA). The calibration curve was obtained by fitting the peak area ratios of the analyte/I.S. and the standard concentrations to a linear equation with 1/x2 weighting, using Analyst. The equation of the calibration curve was then used to interpolate the concentrations of the analyte in the samples using their peak area ratios. The peak areas used for the calculations were not rounded.
The solutions were mixed and centrifuged at 16,000 g for five minutes. […] The GS-441524 extracts were analyzed using an Acquity UPLC system (Waters, Milford, MA) coupled to a G2-S QTof mass analyzer (Waters, Milford, MA). […]

The subject of data set [4] is VERO E6 cells. The data set can be described thus: Cell viability assay CellTiter-Glo, Vero E6 cells (Example 7). (In general: ATP-based viability assays read luminescence as a measure of living cells.)
Data set [5] concerns SARS-CoV-2 isolate USA-WA1/2020. Kind of data set: SARS-CoV-2 infection in Vero E6 cells, qRT-PCR of Spike RNA (Example 3). Type of data set: cell-based.
The subject of data set [6] is VERO E6 cells. The data set can be described thus: CellTiter-Glo luminescent cell viability assay, Vero E6 (Example 3). Format: cell-based. On the procedure:
CellTiter-glo luminescent cell viability assay: Approximately 10^4 Vero E6 cells per well were seeded in opaque walled 96 well cell culture plates and incubated overnight. Compounds or controls were added at the indicated concentrations. […] Viability was calculated compared to untreated controls and CC50 values were calculated using Prism 8.
Determination of Cytotoxicity: The 50% cytotoxic concentrations (CC50) were determined with Cell Titer Glo (Cat. #G7570, Promega, Madison, WI) according to the manufacturer's instructions. The calculated CC50 values are shown in the foregoing table.
Relative viability was measured by CellTiter-Glo luminescent cell viability assay, as depicted at FIG. 2.

In data set [7] the test system is USA WA-01 strain of SARS CoV-2. Kind of data set: Anti-coronavirus activity in Vero E6 cells, qPCR of spike RNA (Example 2). Type of data set: cell-based. The method, then: Ten thousand Vero E6 cells were seeded in 100 microliters of culture medium in 96 well plates. The following day serial two-fold dilutions of antiviral compounds or the DMSO-containing vehicle were added to each well. The USA WA-01 strain of SARS CoV-2 was added to each well at a multiplicity of infection of 0.1 thirty minutes later. Cells were incubated for 48 hours, washed twice in PBS and lysed with TRIzol. RNA was extracted using Directzol micro RNA columns. RNA was made into cDNA and assayed for the SARS CoV-2 spike protein and for a housekeeping gene (RPLPO) RNA by qPCR. Data represents the average of duplicate wells. Cellular cytotoxicity was also measured in VERO E6 cells. […] Cytotoxicity (CC50) was assessed using a commercially available MTT assay.

A further data set has as its system TMPRSS2-Vero cells. The data set can be described thus: Cytotoxicity in TMPRSS2-Vero cells, nuclei count (Example 6). Type of data set: cell-based.
In the next data set the test system is Hep-2 cells. The data set can be described thus: Cell viability assay for the RSV table (CC50). Format: cell-based.
The mark [8] stands for this setting: Vero E6 cells, MOI 0.01, 48 hours, mean±SD.
[9] abbreviates: based on the EC50 values, Vero E6.
[10] abbreviates: Vero E6 cells, MOI 0.1, 48 hours.

As for `CCCCCCCCCCCCCCCCCCOC[C@H](COP(=O)(O)OC[C@H]1O[C@@](C#N)(c2ccc3c(N)ncnn23)[C@H](O)[C@@H]1O)OCc1ccccc1` [Compound 15d, 1-O-octadecyl-2-O-benzyl-sn-glyceryl-phospho-RVn], the Selectivity was 410 in data set [1] (CC50/EC50, PSC-human lung cells); 327 in data set [2] (CC50/EC50, Calu-3 cells); 240 in [5] (CC50/EC50, Vero E6). Also, the EC90 is 260 nM in data set [1] (PSC-human lung cells, MOI 0.01, 48 hours); 330 nM in [2] (Calu-3 cells, MOI 0.01, 48 hours); 560 ± 0.2 nM in [5] (setting [8]); 560 nM in [7] (setting [10]). For the same molecule, the EC50 turned out to be 300 nM in data set [2] (Calu-3 cells, MOI 0.01, 48 hours, listed as ODBG-P-RVn); 190 ± 23 nM in [5] (setting [8]); 210 nM in data set [7] (setting [10]). The “ODBG-P-RVn plasma levels at 12 hours versus EC90 in all cell lines studied” value in data set [3] (day 1 and 7) was “above the EC90”. The “time in which plasma levels fell by 50%” value in data set [3] (hamster, in vivo, po) was “about 5 hours”. Moreover, the “tolerability, clinical signs” value in data set [3] (oral gavage every 12 hours for seven days) was “well tolerated”. For the same molecule, the CC50 with VERO E6 cells [4] was 97.9 µM; in the data set with VERO E6 cells [6], 46 µM; in the data set on TMPRSS2-Vero cells, greater than 20 µM; in the data set on Hep-2 cells, 14.7 µM. Further, the “times more active than RDV” value in data set [5] (setting [9]) stood at 24. In data set [5] (setting [9]), the “times more active than RVn” value is 8.9. In addition, the “Selectivity Index” value in data set [7] (CC50/EC50, Vero E6) is listed as greater than 238.
